Measurements published in patent EP2548555A1, “Proton pump inhibitors as immunomodulators” (Fondazione IRCCS Istituto Nazionale dei Tumori, priority 2011, dated 2013).

Legend:
[1] = test system: allogenic HLA-matched melanoma cells; settings: PPI + chemotherapy (CISPLATIN) vs chemotherapy alone
Description: (§1) We also tested the effect of PPI in advanced melanoma patients receiving high dose esomeprazole (120mg/day for 3 days) in the context of a clinical trial testing the ability of PPI pretreatment to sensitized patients to chemotherapy (CISPLATIN).

circulating monocytes = test: Ex-vivo cytokine secretion by circulating monocytes of treated patients; assay type: in vivo, advanced melanoma patients; settings: after 3 days of high dose PPI treatment
Description: as §1

STAT1 = test: pSTAT evaluation in primary monocytes, IFNa stimulation; assay type: cell-based, human; settings: pre-treated 3 hours, in response to IFNa (30 min)
[2] = test system: Primary human monocytes from HD PBMC; assay type: cell-based
B16 melanoma = test: Survival of mice bearing B16 melanoma not expressing OVA (OTI control; TBI plus TRP-2-sensitized splenocytes); assay type: in vivo
STAT6 [3] = test: pSTAT evaluation in primary monocytes, IL13 stimulation; assay type: cell-based, human; settings: pre-treated 3 hours, in response to IL13 (30 min)
MDSC in peripheral blood = test: Peripheral blood cell frequencies in advanced melanoma patients on high dose esomeprazole; assay type: in vivo; settings: esomeprazole 120mg/day for 3 days
Description: as §1

STAT6 [4] = test: STAT6 phosphorylation state in circulating monocytes of treated patients; assay type: in vivo, advanced melanoma patients; settings: with respect to cells obtained prior to PPI administration
Description: as §1

B16-OVA cells [5] = test: TIL effector function (intracellular IFNγ) after infusion of activated CFSE-labelled OTI cells; assay type: in vivo, mice
[6] = Dosing experiments for tolerated dose; parameters: species or system mice; settings: mouse, in vivo; dosing experiments ranging from 1.25-600 mg/kg; read-out: highest tolerated dose
B16-OVA melanoma = test: Flow cytometry of tumor-infiltrating leukocytes after DC-OVA257-264 vaccination; assay type: in vivo, mice; settings: 7-day-old melanomas, DC-OVA257-264 vaccine, PPI i.p. on day 3 post vaccine, analysed after 24h; vs PBS
STAT3 [7] = test: STAT3 phosphorylation state in circulating monocytes of treated patients; assay type: in vivo, advanced melanoma patients; settings: with respect to cells obtained prior to PPI administration
Description: as §1

STAT3 [8] = test: pSTAT evaluation in primary monocytes, IL6 stimulation; assay type: cell-based, human; settings: pre-treated 3 hours, in response to IL6 (30 min)
B16-OVA cells [9] = test: Functional avidity of tumor CD8+ T cells in the active immunotherapy model (naïve OTI transfer, DC-OVA257-264 vaccine); assay type: in vivo, mice; settings: PPI i.p. at day 11, sacrificed 1 day later; vs PBS
B16-OVA melanoma cells = test: Tumor extracellular pH (pHe) by magnetic resonance spectroscopy (MRS); assay type: in vivo, mice; settings: esomeprazole 12.5 mg/kg i.p.; reached within 60 min; baseline approximately 6.5
B16-OVA = test: Survival with adoptive immunotherapy (activated OTI cells) combined with PPI; assay type: in vivo, mice
[10] = test system: transgenic adenocarcinoma of the mouse prostate (TRAMP); test: IFN-γ production of prostate-infiltrating tumor-specific T cells after HSCT, DLI and DC-Tag-IV vaccination; assay type: in vivo, mice; settings: PPI i.p. 3 days after DC-Tag-IV vaccine, killed after 24 h; vs PBS

**Q.** Which “tumor immunity in peripheral blood” value [1] does the source give for `COc1ccc2nc([S@@+]([O-])Cc3ncc(C)c(OC)c3C)[nH]c2c1` [esomeprazole] here?
**A.** significant increase

**Q.** What about the “ex-vivo secretion of VEGF-A” value (circulating monocytes; before treatment 120±100) of the same molecule?
**A.** 104±58

**Q.** What about the “ex-vivo secretion of TGFβ” value (circulating monocytes; before treatment 1809±900) of the same molecule?
**A.** 1502 ± 755 pg/mL

**Q.** What about the STAT1 phosphorylation (STAT1) of the same molecule?
**A.** inhibit

**Q.** What about the “release of cytokines/chemokines such as IL-8, GRO and MCD” value ([2]; PPI pretreatment, data not shown) of the same molecule?
**A.** did not affect

**Q.** And the cytokine/chemokine secretion ([2]; esomeprazole 100 µg/ml pre-treatment 3 hours, then mel-EXO 100 µg for 24 hours)?
**A.** significantly reduced

**Q.** And the “survival of mice with B16 melanomas not expressing OVA” value (B16 melanoma; OTI cells and PPI treatment)?
**A.** did not impact

**Q.** What about the Survival (B16 melanoma; TBI 600 Rad, TRP-2-sensitized splenocytes plus PPI vs single adoptive transfer of splenocytes only) of the same molecule?
**A.** significantly prolonged

**Q.** What about the STAT6 phosphorylation (STAT6 [3]) of the same molecule?
**A.** inhibit

**Q.** What about the “frequency of MDSC in peripheral blood” value (MDSC in peripheral blood) of the same molecule?
**A.** significantly and rapidly decreases

**Q.** What about the “total CD14+, CD3+, CD4+, CD19+ cells or granulocytes in peripheral blood” value (MDSC in peripheral blood) of the same molecule?
**A.** no change

**Q.** What about the “reduction in STAT6 phosphorylation state” value (STAT6 [4]) of the same molecule?
**A.** 15%

**Q.** What about the “frequency of CFSE+ OT-1 cells” value (B16-OVA cells [5]; 12-day-old melanoma, PPI 24h after OTI infusion, sacrificed 1 day later, vs PBS) of the same molecule?
**A.** comparable

**Q.** What about the “percentage of CD44+CD8+IFNY+ T cells in tumor-derived CFSE+ T cells” value (B16-OVA cells [5]; 12-day-old melanoma, PPI 24h after OTI infusion, vs PBS) of the same molecule?
**A.** significantly enhanced

**Q.** And the “IFNY production by CD8+CD44+ T cells isolated from the spleen, lung and kidney” value (B16-OVA cells [5]; CFSE+ and CFSE- subsets, PPI- vs PBS-treated groups)?
**A.** did not differ

**Q.** And the “IFNY production in CFSE- TILs” value (B16-OVA cells [5]; endogenous T cells, PPI-treated vs PBS-treated mice)?
**A.** higher IFNY production

**Q.** And the MTD [6]?
**A.** 12.5 mg/kg

**Q.** And the “inflammatory infiltrate of the tumor mass” value (B16-OVA melanoma)?
**A.** did not substantially modify

**Q.** What about the “reduction in STAT3 phosphorylation state” value (STAT3 [7]) of the same molecule?
**A.** 20%

**Q.** What about the STAT3 phosphorylation (STAT3 [8]) of the same molecule?
**A.** inhibit

**Q.** What about the “increase in ability of magnetic bead sorted CD8+ T cells to recognize OVA257-264” value (B16-OVA cells [9]) of the same molecule?
**A.** by at least one log

**Q.** And the “tumor pHe” value (B16-OVA melanoma cells)?
**A.** 7.0

**Q.** What about the animal survival (B16-OVA; 8-day melanoma, combined treatment with PPI (12.5 mg/kg) and OTI cells, relative to PBS alone) of the same molecule?
**A.** doubling in the overall survival rate

**Q.** And the tumor growth inhibition (B16-OVA; PPI administered before OTI adoptive transfer)?
**A.** equal tumor growth inhibition

**Q.** And the “population of TIL specifically reacting against the tumor antigen (CD44+IFN-γ+ within CD8+)” value [10]?
**A.** markedly increased
